In patent US5137711A, “Paramagnetic DTPA and EDTA alkoxyalkylamide complexes as MRI agents” (Mallickrodt Medical, Inc., priority 1989, dated 1992):

Tested on: ICR mice
Experiment: acute intravenous toxicity in ICR mice
Type: in vivo
Experimental: The acute intravenous toxicity of the compound of Example II was determined as follows: ICR mice, at 1 to 4 per dose level, received single intravenous injections of the test substance via a lateral tail vein at the rate of approximately 1 ml/minute. The test substances were at concentrations chosen to result in dose volumes of 5 to 75 ml/kg body weight. Dosing began at a volume of 10 ml/kg. Dose adjustments up or down were made to closely bracket the estimated LD50 with 4 animals per group (2 males and 2 females). Observations of the mice were recorded at times 0, 0.5, 1,2,4 and 24 hours and once daily thereafter for up to 7 days post injection. On the 7th day post injection, the mice were euthanized, weighed and necropsied. Abnormal tissues were noted. At this time a decision was made as to whether any histopathology was to be performed and whether or not the tissues should be retained. Necropsies were also performed on mice expiring after 24 hours post-injection, except for dead mice found on the weekends The LD50 values, along with 95% CI were calculated using a modified Behrens-Reed-Meunch method. The results for the complex of Example II are reported below:
Sex and Weight Range of Mice: Males(18.0-20.3 g) Females (19.0-21.7 g)

COCCNC(=O)CN(CCN(CCN(CC(=O)[O-])CC(=O)NCCOC)CC(=O)[O-])CC(=O)[O-].[Gd+3] [Example II, {N,N"-Bis[N-(2-methoxyethyl)-carbamoylmethyl]diethylenetriamine-N,N',N"-triaceto} gadolinium (III)]
Body weight of surviving mice (7-day post-injection period, i.v.): failed to gain weight
i.v. toxicity (overall, in words) (preliminary tests, mice): low order of i.v. toxicity
